# Test results: patent US11622991B2, “Protocol for treatment of lupus nephritis” (Aurinia Pharmaceuticals Inc., priority 2017, dated 2023)
# Columns and labels:
# Format in all cases: in vivo, human
# [1] = tested on: lupus nephritis; experiment: Predictability of week 48 partial remission from early C3/C4 normalization (Table 12)
# From the text: (§1) PR is defined as at least 50% reduction in proteinuria (i.e. UPCR).
# (§2) Sensitivity is defined as the probability that a subject showing PR at 48 weeks would have shown a favorable result with regard to the marker at the designated early time point. In the tables below, this is the ratio of the number of subjects with favorable marker results (early drop or normalization) to the total subjects with 48 week PR.
# (§3) Specificity is defined as the probability that a subject not showing PR at 48 weeks would have shown an unfavorable result with regard to the marker at the designated early time point. In the tables below, this is the ratio of the number of subjects with unfavorable marker results (no early drop or no normalization) to the total subjects with no 48 week PR.
# (§4) Positive predictive value is defined as the probability that a subject showing a favorable result with respect to the marker at an earlier time point would show PR at 48 weeks. In the tables below, this is the ratio of the number of subjects with favorable marker results who have 48 week PR to those with favorable marker results (early reduction or yes column).
# (§5) Negative predictive value is defined as the probability that a subject showing an unfavorable result with respect to the marker at an earlier time point would not show PR at 48 weeks. In the tables below, this is the ratio of the number of subjects with unfavorable marker results who have no PR at 48 weeks to the total subjects with unfavorable marker results (no early reduction or no column).
# Another criterion for effectiveness is normalization of C3 and/or C4 concentration in blood. The normal concentration of C3 is 90 mg/dl or greater and for C4 16 mg/dl or greater.
# [2] = tested on: lupus nephritis; experiment: Probability of attaining CR by proteinuria depending on UPCR reduction of 25% at 8 weeks (Tables 9a, 9b)
# [3] = tested on: lupus nephritis; experiment: Predictability from early reduction in UPCR or C3/C4 normalization combined at 12 weeks (Tables 13-17); conditions: number of patients
# From the text: as §1, §2, §3, §4
# as §5, with “column). […]” for “column).”
# [4] = Early 25% reduction in UPCR or C3/C4 normalization, Week 12, 23.7 mg BID
# [5] = Early 25% reduction in UPCR or C3/C4 normalization, Week 12, 39.5 mg BID
# [6] = Early 25% reduction in UPCR or C3/C4 normalization, Week 24, 23.7 mg BID
# [7] = Early 25% reduction in UPCR or C3/C4 normalization, Week 48, 23.7 mg BID
# [8] = Early 30% reduction in UPCR or C3/C4 normalization, Week 12, 23.7 mg BID
# [9] = Early 30% reduction in UPCR or C3/C4 normalization, Week 12, 39.5 mg BID
# [10] = Early 30% reduction in UPCR or C3/C4 normalization, Week 24, 23.7 mg BID
# [11] = Early 30% reduction in UPCR or C3/C4 normalization, Week 48, 23.7 mg BID
# [12] = Early 30% reduction in UPCR or C3/C4 normalization, Week 48, 39.5 mg BID
# [13] = Early 35% reduction in UPCR or C3/C4 normalization, Week 12, 23.7 mg BID
# [14] = Early 35% reduction in UPCR or C3/C4 normalization, Week 12, 39.5 mg BID
# [15] = Early 35% reduction in UPCR or C3/C4 normalization, Week 24, 23.7 mg BID
smiles,measurement,setting,value
C=C/C=C/C[C@@H](C)[C@@H](O)[C@H]1C(=O)N[C@@H](CC)C(=O)N(C)CC(=O)N(C)[C@@H](CC(C)C)C(=O)N[C@@H](C(C)C)C(=O)N(C)[C@@H](CC(C)C)C(=O)N[C@@H](C)C(=O)N[C@H](C)C(=O)N(C)[C@@H](CC(C)C)C(=O)N(C)[C@@H](CC(C)C)C(=O)N(C)[C@@H](C(C)C)C(=O)N1C [voclosporin],Normalization Yes,"[1]; week 12, 23.7 mg BID",26
same,No Week 48 Partial Remission No Normalization,"[1]; week 12, 39.5 mg BID",10
same,No Week 48 Partial Remission Normalization,"[1]; week 12, 39.5 mg BID",7
same,Week 48 Partial Remission No Normalization,"[1]; week 12, 39.5 mg BID",33
same,Week 48 Partial Remission Normalization,"[1]; week 12, 39.5 mg BID",29
same,No Week 48 Partial Remission No Normalization,"[1]; week 24, 23.7 mg BID",10
same,No Week 48 Partial Remission Normalization,"[1]; week 24, 23.7 mg BID",4
same,Normalization Yes,"[1]; week 24, 23.7 mg BID",27
same,Normalization Yes,"[1]; week 24, 39.5 mg BID",31
same,No Week 48 Partial Remission No Normalization,"[1]; week 48, 23.7 mg BID",8
same,No Week 48 Partial Remission Normalization,"[1]; week 48, 23.7 mg BID",2
same,No Week 48 Partial Remission No Normalization,"[1]; week 48, 39.5 mg BID",11
same,Normalization Yes,"[1]; week 48, 39.5 mg BID",32
same,# of patients without UPCR reduction of ≥25% at 8 weeks,[2]; High Dose (39.5 mg BID),12
same,# of CRs by Proteinuria at 24 weeks,[2]; Low Dose (23.7 mg BID),29
same,# of patients with UPCR reduction of ≥25% at 8 weeks,[2]; Low Dose (23.7 mg BID),64
same,# of patients without UPCR reduction of ≥25% at 8 weeks,[2]; Low Dose (23.7 mg BID),16
same,"No Week 48 Partial Remission, No Early Drop or Normal",[3]; [4],3
same,"Week 48 Partial Remission, No Early Drop or Normal",[3]; [4],2
same,"No Week 48 Partial Remission, No Early Drop or Normal",[3]; [5],3
same,"Week 48 Partial Remission, No Early Drop or Normal",[3]; [5],3
same,Early Drop or Normal No,[3]; [6],1
same,"No Week 48 Partial Remission, No Early Drop or Normal",[3]; [6],1
same,Early Drop or Normal No,"[3]; Early 25% reduction in UPCR or C3/C4 normalization, Week 24, 39.5 mg BID",10
same,Early Drop or Normal No,[3]; [7],1
same,"No Week 48 Partial Remission, Early Drop or Normal",[3]; [7],10
same,"No Week 48 Partial Remission, No Early Drop or Normal",[3]; [7],1
same,"No Week 48 Partial Remission, Early Drop or Normal","[3]; Early 25% reduction in UPCR or C3/C4 normalization, Week 48, 39.5 mg BID",10
same,"No Week 48 Partial Remission, No Early Drop or Normal",[3]; [8],3
same,"Week 48 Partial Remission, No Early Drop or Normal",[3]; [8],2
same,Early Drop or Normal No,[3]; [9],7
same,"No Week 48 Partial Remission, No Early Drop or Normal",[3]; [9],3
same,"Week 48 Partial Remission, No Early Drop or Normal",[3]; [9],4
same,Early Drop or Normal No,[3]; [10],1
same,"No Week 48 Partial Remission, No Early Drop or Normal",[3]; [10],1
same,Early Drop or Normal No,"[3]; Early 30% reduction in UPCR or C3/C4 normalization, Week 24, 39.5 mg BID",10
same,Early Drop or Normal No,[3]; [11],2
same,"No Week 48 Partial Remission, Early Drop or Normal",[3]; [11],9
same,"No Week 48 Partial Remission, No Early Drop or Normal",[3]; [11],2
same,Early Drop or Normal No,[3]; [12],8
same,"No Week 48 Partial Remission, Early Drop or Normal",[3]; [12],8
same,"No Week 48 Partial Remission, No Early Drop or Normal",[3]; [12],8
same,Early Drop or Normal No,[3]; [13],9
same,"Week 48 Partial Remission, No Early Drop or Normal",[3]; [13],4
same,Early Drop or Normal No,[3]; [14],9
same,"No Week 48 Partial Remission, No Early Drop or Normal",[3]; [14],3
same,Early Drop or Normal No,[3]; [15],4
same,"No Week 48 Partial Remission, Early Drop or Normal",[3]; [15],10
same,"No Week 48 Partial Remission, No Early Drop or Normal",[3]; [15],4
same,Early Drop or Normal No,"[3]; Early 35% reduction in UPCR or C3/C4 normalization, Week 24, 39.5 mg BID",10
same,Early Drop or Normal No,"[3]; Early 35% reduction in UPCR or C3/C4 normalization, Week 48, 23.7 mg BID",3
